Experimental data: patent US7151195B2, “Phthalamide derivative, agricultural or horticultural insecticide, and method of use thereof” (Bayer CropScience LP, priority 2002, dated 2006)

What was measured:
Format in all cases: in vivo
[1] = system: Common Cutworm (Spodoptera litura); experiment: Insecticidal test on common cutworm (Test Example 2); conditions: cabbage leaf immersed about 30 seconds, second-instar larvae, counted eight days after inoculation, 25° C.; for Test Example 2: insecticidal effect (mortality criterion): 50 ppm; for mortality at 50 ppm: Spodoptera litura, 192 h, read-out: Test Example 2: insecticidal effect (mortality criterion)
Procedure: A piece of cabbage leaf (cultivar; Shikidori) was immersed for about 30 seconds in a liquid chemical prepared by diluting a preparation containing each compound listed in Tables 1 to 3 as an active ingredient to adjust the concentration to 50 ppm. After air-dryness, it was placed in a plastic Petri dish with a diameter of 9 cm and inoculated with second-instar larvae of common cutworm, after which the dish was closed and then allowed to stand in a room thermostatted at 25° C. Eight days after the inoculation, the dead and alive were counted. The mortality was calculated according to the following equation and the insecticidal effect was judged according to the criterion shown in Test Example 1. The test was carried out with triplicate groups of 10 insects.

[2] = system: Diamond Back Moth (Plutella xylostella); experiment: Insecticidal test on diamond back moth (Test Example 1); conditions: Chinese cabbage seedling with eggs immersed about 30 seconds, hatched insects counted six days after immersion, 25° C.; for Test Example 1: insecticidal effect (mortality criterion): 50 ppm; for mortality at 50 ppm: Plutella xylostella, 144 h, read-out: Test Example 1: insecticidal effect (mortality criterion)
Procedure: Adult diamond back moths were released and allowed to oviposit on a Chinese cabbage seedling. Two days after the release, the seedling having the eggs deposited thereon was immersed for about 30 seconds in a liquid chemical prepared by diluting a preparation containing each compound listed in Tables 1 to 3 as an active ingredient to adjust the concentration to 50 ppm. After air-dryness, it was allowed to stand in a room thermostatted at 25° C. Six days after the immersion, the hatched insects were counted. The mortality was calculated according to the following equation and the insecticidal effect was judged according to the criterion shown below. The test was carried out with triplicate groups of 10 insects.

[3] = system: Smaller Tea Tortrix (Adoxophyes sp.); experiment: Insecticidal test on smaller tea tortrix (Test Example 3); conditions: 50 ppm; tea leaves immersed about 30 seconds; larvae; counted eight days after inoculation; 25° C., humidity 70%
Procedure: Tea leaves were immersed for about 30 seconds in a liquid chemical prepared by diluting a preparation containing each compound listed in Tables 1 to 3 as an active ingredient to adjust the concentration to 50 ppm. After air-dryness, the tea leaves were placed in a plastic Petri dish with a diameter of 9 cm and inoculated with larvae of smaller tea tortrix, after which the dish was allowed to stand in a room thermostatted at 25° C. and having a humidity of 70%. Eight days after the inoculation, the dead and alive larvae were counted and, the mortality was calculated according to the equation shown in Test Example 2, and the insecticidal effect was judged according to the criterion shown in Test Example 1. The test was carried out with triplicate groups of 10 insects.

| Structure (SMILES) | Test Example 2: insecticidal effect (mortality criterion) [1] | Test Example 1: insecticidal effect (mortality criterion) [2] | Test Example 3: insecticidal effect (mortality criterion) [3] | mortality at 50 ppm [1] [%] | mortality at 50 ppm [2] [%] |
| --- | --- | --- | --- | --- | --- |
| CSCC(C)NC(=O)c1c(I)cccc1C(=O)Nc1ccc(S(F)(F)(F)(F)F)cc1C (stereo not drawn) [1-290] | A (Mortality 100%) | A (Mortality 100%) | A (Mortality 100%) | – | – |
| Cc1cc(S(F)(F)(F)(F)F)ccc1NC(=O)c1cccc(I)c1C(=O)NC(C)CS(C)(=O)=O (stereo not drawn) [1-292] | A (Mortality 100%) | A (Mortality 100%) | A (Mortality 100%) | – | – |
| CSCC(C)(C)NC(=O)c1c(I)cccc1C(=O)Nc1ccc(S(F)(F)(F)(F)F)cc1C [1-296] | A (Mortality 100%) | A (Mortality 100%) | A (Mortality 100%) | – | – |
| Cc1cc(S(F)(F)(F)(F)F)ccc1NC(=O)c1cccc(I)c1C(=O)NC(C)(C)C[S+](C)[O-] (stereo not drawn) [1-297] | A (Mortality 100%) | A (Mortality 100%) | A (Mortality 100%) | – | – |
| Cc1cc(S(F)(F)(F)(F)F)ccc1NC(=O)c1cccc(I)c1C(=O)NC(C)(C)CS(C)(=O)=O [1-298] | A (Mortality 100%) | A (Mortality 100%) | A (Mortality 100%) | – | – |
| CSCC(C)(C)NC(=O)c1c(I)cccc1C(=O)Nc1ccc(S(F)(F)(F)(F)F)cc1Cl [1-372, N^1-(2-chloro-4-pentafluorosulfanylphenyl)-N^2-(1,1-dimethyl-2-methylthioethyl)-3-iodophthalamide] | – | – | A (Mortality 100%) | 100 | 100 |
| CC(C)(CS(C)(=O)=O)NC(=O)c1c(I)cccc1C(=O)Nc1ccc(S(F)(F)(F)(F)F)cc1Cl [1-374, N^1-(2-chloro-4-pentafluorosulfanylphenyl)-N^2-(1,1-dimethyl-2-methylsulfonylethyl)-3-iodophthalamide] | – | – | A (Mortality 100%) | 100 | 100 |
| CSCC(C)(C)NC(=O)c1c(I)cccc1C(=O)Nc1ccc(S(F)(F)(F)(F)F)cc1 [1-458] | A (Mortality 100%) | A (Mortality 100%) | A (Mortality 100%) | – | – |
| CCN(C(=O)c1cccc(I)c1C(=O)NC(C)(C)CSC)c1ccc(S(F)(F)(F)(F)F)cc1 [2-22] | A (Mortality 100%) | A (Mortality 100%) | A (Mortality 100%) | – | – |
| CCN(C(=O)c1cccc(I)c1C(=O)NC(C)(C)C[S+](C)[O-])c1ccc(S(F)(F)(F)(F)F)cc1 (stereo not drawn) [2-23] | A (Mortality 100%) | A (Mortality 100%) | E (Mortality 49% or less) | – | – |
| CCN(C(=O)c1cccc(I)c1C(=O)NC(C)(C)CS(C)(=O)=O)c1ccc(S(F)(F)(F)(F)F)cc1 [2-24] | A (Mortality 100%) | A (Mortality 100%) | A (Mortality 100%) | – | – |
| CSCC(C)(C)NC(=O)c1c(I)cccc1C(=O)Nc1cccc(S(F)(F)(F)(F)F)c1 [3-5] | E (Mortality 49% or less) | A (Mortality 100%) | A (Mortality 100%) | – | – |
| C[S+]([O-])CC(C)(C)NC(=O)c1c(I)cccc1C(=O)Nc1cccc(S(F)(F)(F)(F)F)c1 (stereo not drawn) [3-6] | D (Mortality 79–50%) | A (Mortality 100%) | E (Mortality 49% or less) | – | – |
| CC(C)(CS(C)(=O)=O)NC(=O)c1c(I)cccc1C(=O)Nc1cccc(S(F)(F)(F)(F)F)c1 [3-7] | A (Mortality 100%) | A (Mortality 100%) | A (Mortality 100%) | – | – |
| CSCC(C)(C)NC(=O)c1c(I)cccc1C(=O)Nc1cccc(S(F)(F)(F)(F)F)c1Cl [3-24] | A (Mortality 100%) | A (Mortality 100%) | A (Mortality 100%) | – | – |
| CC(C)(CS(C)(=O)=O)NC(=O)c1c(I)cccc1C(=O)Nc1cccc(S(F)(F)(F)(F)F)c1Cl [3-26] | A (Mortality 100%) | A (Mortality 100%) | A (Mortality 100%) | – | – |
